Marks after values point to notes of the source that are not given here.
Legend:
[1] = test system: Penicillum chrysogenum AUMC 9476; test: disk diffusion assay, inhibition zone; assay type: cell-based; conditions: P. chrysoginum; 10 μg/disk; read-out: Inhibition zone diameter of standard antimicrobial agents
Method: (§1) To evaluate antimicrobial activity of the compound 4, synthesized in our laboratory as novel anti-bacterial and anti-fungal agents, the inhibition zone diameter (mm) and the minimal inhibitory concentration were determined according to (Andrews 2001; Hudzicki 2009). The test carried out on several clinical microorganisms included Gram positive bacteria (Staphylococcus aureus ATCC and Streptococcus mutans ATCC 35668), Gram negative bacteria (Escherichia coli ATCC 25922, Salmonella typhimurium ATCC 14028 and Neisseria meningitides ATCC 1302); yeasts (Candid albicans ATCC 60193, Cryptococcus neoformans Wild strain and Candida parapsilosus ATCC 22019) and molds (Aspergillus fumigatus AUMC 8794, Penicillum chrysogenum AUMC 9476 and Fusarium sp.)
(§2) The clinical microorganisms were cultivated at least three times on suitable culture medium and incubating conditions before susceptibility test. The concentration of microbial inoculation suspensions in sterile sodium chloride solution (0.89%) were adjusted to 0.65 at 620 nm by spectrophotometer. […]
(§3) After that, the disks were dried at 25° C. under sterile conditions by safety biological cabinet. A Mueller-Hinton agar (MHA) (Scharlau Microbiogy, Spain) and a potato dextrose agar (PDA) (Scharlau, Spain) were used to perform antibacterial and antifungal test respectively. The media were prepared according to manufacturer's guidelines. To prepare one liter of MHA and one liter of PDA, 21 grams of MHA and 39 grams of PDA were dissolved in one liter of sterile distilled water, followed by sterilization at 121° C. for 15 minutes by an autoclave (HL-321, Taiwan). The sterilized media were poured in sterile plastic Petri dishes at 50° C. The plates were allowed to let the medium solidify at room temperature. 0.1 ml of microbial inoculation suspensions were spread on dried surface of medium and were kept at 25° C. for 5-10 minutes. The compound 4 and standard antimicrobial drugs discs (Table 1) were dispensed on the surface of inoculated media. The tested bacteria and fungi were incubated at 37±1° C. for 19-22 hours and at 25±1 for 48-72 hours respectively. After the incubation, the diameter of inhibition zone (millimeter) resulting from the biological activity of compound were recorded.

[2] = test system: Candida parapsilosus ATCC 22019; test: disk diffusion assay, inhibition zone; assay type: cell-based; conditions: C. parasilosus
Method: as §1, §2, §3

[3] = test system: Aspergillus fumigatus AUMC 8794; test: disk diffusion assay, inhibition zone; assay type: cell-based; conditions: Aspergillus fumigatus, AUMC8794; A. fumigatus; 10 μg/disk; read-out: Inhibition zone diameter of standard antimicrobial agents
Method: as §1, §2, §3

[4] = test system: Cryptococcus neoformans Wild strain; test: disk diffusion assay, inhibition zone; assay type: cell-based; conditions: Cryptococcus neoformans; C. neoformasn; 10 μg/disk; read-out: Inhibition zone diameter of standard antimicrobial agents
Method: as §1, §2, §3

[5] = test system: Candid albicans ATCC 60193; test: disk diffusion assay, inhibition zone; assay type: cell-based; conditions: Candida albicans, ATCC60193; C. albicans; 10 μg/disk; read-out: Inhibition zone diameter of standard antimicrobial agents
Method: as §1, §2, §3

Fusarium sp. = test: disk diffusion assay, inhibition zone; assay type: cell-based; conditions: Fusarium sp.; 10 μg/disk; read-out: Inhibition zone diameter of standard antimicrobial agents
Method: as §1, §2, §3

C. albicans = test: in vivo antifungal activity, candidemia in mice infected with C. albicans; design: species or system Albino male mice; conditions: C. albicans-infected mice; for daily body weight / % change in daily body weight / Food consumption / Mortality / Water consumption: oral 12 mg/kg then 6 mg/ml
Method: To confirm that the water soluble form of the compound 4 has a biological activity as a novel antimicrobial agent, effectiveness of the compound 4 as a drug to treat candidemia in mice was investigated. The experiment was performed in Experimental Animal Care Center (EACC), College of Pharmacy, King Saud University, Riyadh. Fifty Albino male mice, weighing nearly 30±2 gram were used. The mice were arranged in five groups, each including ten mice caged together, given water, and feed ad libitum. Negative control and control group were infected intravenously with 0.2 ml of C. albicans suspension (10^6 CFU/mouse) and 0.2 ml of sterile normal saline (0.89% Nacl) respectively. The group treated with standard drug (fluconazole) was infected intravenously with 0.2 ml of C. albicans suspension (10^6 CFU/mouse) and treated (orally) by 12 mg/kg of fluconazole (loading dose) on the first day followed by 6 mg/ml for 2 weeks. The group treated with the investigated compound 4 was infected intravenously with C. albicans at 10^6 CFU/mouse (0.2 ml) and treated (orally) by 12 mg/kg of the compound 4 (loading dose) on the first day followed by 6 mg/ml for 2 weeks. To study the biological effects of compound 4, a fifth group was designed. In this group the mice were treated intravenously (I. V) with 12 mg/kg of the compound 4 on the first day followed by 6 mg/ml for 2 weeks. All doses of the standard drug and compound 4 were given twice daily.
The effectiveness of the previous treatments on some biological concepts were evaluated. The biological parameters included daily body weight (gm), mortality (%), food consumption (g/day/mouse), water consumption (ml/day/mouse), serum glutamic oxaloacetic transaminase [SGOT(AST) (U/L)], serum glutamic-pyruvic transaminase [SGPT(ALT)(U/L)], alkaline phosphatase (U/L), gamma-glutamyl transferase (GGT) (U/L), bilirubin (mg/dl)], cholesterol (mg/dl), triglycerides (mg/dl), high-density lipoprotein (HDL) (mg/dl), very-low-density lipoprotein (VLDL) (mg/dl), low-density lipoprotein (LDL) (mg/dl), lactate dehydrogenase (LDH) (U/L), glucose (mg/dl), total protein (mg/dl), malondialdehyde (MDA) (nmol/g), nonprotein sulfyhydryl (NP-SH) (nmol/g). Addition hematologic constituents including white blood cells (WBC) (cell/mm^3), red blood cells (RBC) (10^6/mm^3), hemoglobin (HGB) (g/dL), HCT, Platelets (PLT) (10^3/mm^3), mean corpuscular volume (MCV) (fL), mean corpuscular hemoglobin (MCH) (pg), mean corpuscular hemoglobin concentration (MCHC) (g/dL), neutrophils (%), lymphocytes (%), eosinophils (%) and monocytes (%)] were evaluated (Classics Lowry et al. 1951; Utley et al. 1967; Sedlak et al. 1968). SGOT (AST), SGPT (ALT), ALP, GGT, bilirubin LDH and total protein were estimated using Reflotron Plus Analyzer and Roche kits (Roche Diagnostics GmbH, Mannheim Germany) and United diagnostic kits assay. Hematological tests were performed by Mindray BC-2800VET auto Hematology Analyzer.

[6] = blood, oral 12 mg/kg then 6 mg/ml for 2 weeks
[7] = liver tissue, oral 12 mg/kg then 6 mg/ml for 2 weeks
[8] = serum, oral 12 mg/kg then 6 mg/ml for 2 weeks

Clc1ccccc1C(c1ccccc1)(c1ccccc1)n1ccnc1 [Canesten]
zone of inhibition at 10 µg/disc [1]: 30 mm
susceptibility of the strain to the standard drug, in words [2]: resistant
zone of inhibition at 10 µg/disc ([2]; Candida, ATCC22019, 10 μg/disk, read-out: Inhibition zone diameter of standard antimicrobial agents): 0 mm
zone of inhibition at 10 µg/disc [3]: 23 mm
zone of inhibition at 10 µg/disc [4]: 25 mm
zone of inhibition at 10 µg/disc [5]: 26 mm
zone of inhibition at 10 µg/disc (Fusarium sp.): 15 mm

OC(Cn1cncn1)(Cn1cncn1)c1ccc(F)cc1F [fluconazole, reference compound]
daily body weight (C. albicans; day 0): 19.70 ± 0.47 gm
% change in daily body weight (C. albicans; day 1): 0.50%
Food consumption (C. albicans; day 1): 4.3 g/day/mice
Mortality (C. albicans; day 1): 0%
Water consumption (C. albicans; day 1): 4.8 g/day/mice
daily body weight (C. albicans; day 1): 19.80 ± 0.35 gm
% change in daily body weight (C. albicans; day 2): 10.65%
Food consumption (C. albicans; day 2): 4.3 g/day/mice
Mortality (C. albicans; day 2): 0%
Water consumption (C. albicans; day 2): 4.8 g/day/mice
daily body weight (C. albicans; day 2): 21.80 ± 0.24 gm
% change in daily body weight (C. albicans; day 3): 13.19%
Food consumption (C. albicans; day 3): 4.5 g/day/mice
Mortality (C. albicans; day 3): 0%
Water consumption (C. albicans; day 3): 4.9 g/day/mice
daily body weight (C. albicans; day 3): 22.30 ± 0.21 gm
% change in daily body weight (C. albicans; day 4): 13.70%
Food consumption (C. albicans; day 4): 4.6 g/day/mice
Mortality (C. albicans; day 4): 0%
Water consumption (C. albicans; day 4): 5.0 g/day/mice
daily body weight (C. albicans; day 4): 22.40 ± 0.22 gm
% change in daily body weight (C. albicans; day 5): 21.31%
Food consumption (C. albicans; day 5): 4.6 g/day/mice
Mortality (C. albicans; day 5): 0%
Water consumption (C. albicans; day 5): 5.2 g/day/mice
daily body weight (C. albicans; day 5): 23.90 ± 0.31 gm
% change in daily body weight (C. albicans; day 6): 21.82%
Food consumption (C. albicans; day 6): 4.7 g/day/mice
Mortality (C. albicans; day 6): 0%
Water consumption (C. albicans; day 6): 5.2 g/day/mice
daily body weight (C. albicans; day 6): 24.00 ± 0.29 gm
% change in daily body weight (C. albicans; day 7): 22.95%
Food consumption (C. albicans; day 7): 5.0 g/day/mice
Mortality (C. albicans; day 7): 10%
Water consumption (C. albicans; day 7): 5.1 g/day/mice
daily body weight (C. albicans; day 7): 24.22 ± 0.22 gm
% change in daily body weight (C. albicans; day 8): 24.08%
Food consumption (C. albicans; day 8): 5.1 g/day/mice
Mortality (C. albicans; day 8): 10%
Water consumption (C. albicans; day 8): 5.2 g/day/mice
daily body weight (C. albicans; day 8): 24.44 ± 0.24 gm
% change in daily body weight (C. albicans; day 9): 24.36%
Food consumption (C. albicans; day 9): 4.7 g/day/mice
Mortality (C. albicans; day 9): 20%
Water consumption (C. albicans; day 9): 5.2 g/day/mice
daily body weight (C. albicans; day 9): 24.50 ± 0.18 gm
% change in daily body weight (C. albicans; day 10): 26.29%
Food consumption (C. albicans; day 10): 5.00 g/day/mice
Mortality (C. albicans; day 10): 20%
Water consumption (C. albicans; day 10): 5.3 g/day/mice
daily body weight (C. albicans; day 10): 24.87 ± 0.29 gm
% change in daily body weight (C. albicans; day 11): 28.17%
Food consumption (C. albicans; day 11): 5.1 g/day/mice
Mortality (C. albicans; day 11): 20%
Water consumption (C. albicans; day 11): 5.3 g/day/mice
daily body weight (C. albicans; day 11): 25.25 ± 0.25 gm
% change in daily body weight (C. albicans; day 12): −28.80%
Food consumption (C. albicans; day 12): 5.62 g/day/mice
Mortality (C. albicans; day 12): 20%
Water consumption (C. albicans; day 12): 5.5 g/day/mice
daily body weight (C. albicans; day 12): 25.37 ± 0.26 gm
% change in daily body weight (C. albicans; day 13): 31.97%
Food consumption (C. albicans; day 13): 5.2 g/day/mice
Mortality (C. albicans; day 13): 30%
Water consumption (C. albicans; day 13): 5.4 g/day/mice
daily body weight (C. albicans; day 13): 26.00 ± 0.30 gm
% change in daily body weight (C. albicans; day 14): 33.43%
Food consumption (C. albicans; day 14): 5.2 g/day/mice
Mortality (C. albicans; day 14): 30%
Water consumption (C. albicans; day 14): 5.4 g/day/mice
daily body weight (C. albicans; day 14): 26.28 ± 0.28 gm
% change in daily body weight (C. albicans; day 15): 35.60%
Food consumption (C. albicans; day 15): 5.5 g/day/mice
Mortality (C. albicans; day 15): 30%
Water consumption (C. albicans; day 15): 5.7 g/day/mice
daily body weight (C. albicans; day 15): 26.71 ± 0.28 gm
Eosinophils Mean ± SE (C. albicans; [6]): 1.61 ± 0.10%
HCT Mean ± SE (C. albicans; [6]): 35.05 ± 1.5
HGB Mean ± SE (C. albicans; [6]): 11.1 ± 0.18 g/dL
Lymphocytes Mean ± SE (C. albicans; [6]): 6.2 ± 0.1%
MCH Mean ± SE (C. albicans; [6]): 28.2 ± 0.7 pg
MCHC Mean ± SE (C. albicans; [6]): 24.3 ± 0.5 g/dL
MCV Mean ± SE (C. albicans; [6]): 72.04 ± 2.6 fL
Monocytes Mean ± SE (C. albicans; [6]): 1.06 ± 0.02%
Neutrophils Mean ± SE (C. albicans; [6]): 25.9 ± 0.5%
PLT Mean ± SE (C. albicans; [6]): 563.8 ± 17.4 10^3/mm^3
RBC Mean ± SE (C. albicans; [6]): 7.50 ± 0.23 10^6/mm^3
WBC Mean ± SE (C. albicans; [6]): 8233.2 ± 83.7 Cell/mm^3
MDA (C. albicans; [7]): 2.33 ± 0.07***^b nmol/g
NP-SH (C. albicans; [7]): 4.21 ± 0.18***^b nmol/g
Total Protein (C. albicans; [7]): 92.72 ± 1.54***^b g/l
Alkaline phosphatase Mean ± SE (C. albicans; [8]): 321.28 ± 6.91 U/L
Bilirubin Mean ± SE (C. albicans; [8]): 0.75 ± 0.03 mg/dL
Cholesterol Mean ± SE (C. albicans; [8]): 134.8 ± 3.6 mg/dL
GGT Mean ± SE (C. albicans; [8]): 5.60 ± 0.17 U/L
Glucose level Mean ± SE (C. albicans; [8]): 143.85 ± 2.47***^b mg/dl
HDL Mean ± SE (C. albicans; [8]): 29.8 ± 0.9 mg/dL
LDH Mean ± SE (C. albicans; [8]): 184.92 ± 5.08***^b U/L
LDL Mean ± SE (C. albicans; [8]): 83.9 ± 3.3 mg/dL
SGOT(AST) Mean ± SE (C. albicans; [8]): 143.28 ± 2.88 U/L
SGPT(ALT) Mean ± SE (C. albicans; [8]): 50.48 ± 3.17 U/L
Triglycerides Mean ± SE (C. albicans; [8]): 105.1 ± 2.2 mg/dL
VLDL Mean ± SE (C. albicans; [8]): 21.0 ± 0.4 mg/dL

Source: patent US9988348B1, “Synthesis and antimicrobial use of a trithiocarbonate derivative” (KING SAUD UNIVERSITY, priority 2017, dated 2018)
